The test system of data set [1] is P. aeruginosa 27853. The note with it: P. aeruginosa 27853, biofilm; cited from earlier work.
Data set [2] has as its system P. aeruginosa 27853. Conditions: cited from earlier work.
For data set [3], the system named is MRSA 388. Conditions: cited from earlier work.
Data set [4] relates to E. coli 25922. The note with it: E. coli 25922, biofilm; cited from earlier work.
In data set [5] the test system is E. coli 25922. The note with it: cited from earlier work.
Data set [6] has as its system S. aureus 25923. Conditions: cited from earlier work.
The test system of data set [7] is MRSA 388. Conditions: MRSA 388, biofilm; cited from earlier work.
Data set [8] deals with S. aureus 25923. The note with it: S. aureus 25923, biofilm; cited from earlier work.
Data set [9] deals with B16 murine melanoma cell line. Conditions: cited from earlier work; for TI: 48 h; for IC50: B16, 48 h.
Data set [10] concerns BJ normal cell line (human fibroblast cells). Nature of the data set: MTT cell viability assay, BJ normal cells. The class given is cell-based. The note with it: range of tested concentrations, 24 h and 48 h. On the procedure:
(§1) Human fibroblast cells (BJ—ATCC CRL-2522, USA) were grown in minimal essential medium (MEM) supplemented with 2 mM L-Glutamine, 10% fetal calf serum (FCS), 100 units/mL of penicillin, and 100 µg/mL of streptomycin at 37 °C in a humidified incubator under an atmosphere containing 5% CO2. Mouse melanoma cells (B16—ATCC CRL—6475, USA) were grown in DMEM (Dulbecco’s Modified Eagle Medium) supplemented with similar reagents as MEM. All cell cultivation media and reagents were purchased from Biochrom AG (Berlin, Germany) and Sigma-Aldrich (Darmstadt, Germany).
(§2) Cell viability was evaluated using 3-(4,5-dimethylthiazol-2-yl)-2,5-diphenyltetrazolium bromide (MTT) assay as described previously. First, the cells were seeded in 96-well plates (20000 cells/well) and cultured for 24 h in medium. […] The negative control was represented by cells cultivated in a medium without the investigated compounds. Following incubation, the medium was changed, and the MTT solution was added to each well to a final concentration of 1 mg/mL and incubated for an additional 4 h, at 37 °C. Finally, the medium was collected, and DMSO was used to dissolve the insoluble formazan product. The absorbance of the samples was recorded at 570 nm using a plate reader Mithras 940 (Berthold). The data were corrected for the background, and the percentage of viable cells was obtained using the equation:Cell viability = [(A570 of treated cells)/(A570 of untreated cells)] × 100%(1)
(§3) The half-maximal inhibitory concentration (IC50) was determined by fitting the data with a sigmoidal logistical equation using the software Origin 8.1 (Microcal Inc., Los Angeles, CA, USA).
For orientation: Tetrazolium assays rely on reduction of a dye to a coloured formazan, in cell work by metabolically active cells.

Data set [11] concerns E. coli 25922. In words: Biofilm formation on polystyrene (crystal violet), MBEC. The note with it: E. coli 25922, biofilm. The format is cell-based, Escherichia coli. On the procedure: (§4) The antibacterial assays were carried out using two Gram-negative (Escherichia coli ATCC 25922, Pseudomonas aeruginosa ATCC 27853) and two Gram-positive (Staphylococcus aureus ATCC 25923, MRSA (meticillin-Resistant S. aureus) 388 (ATCC, American Type Culture Collection) bacteria.
(§5) The method for assessment of biofilm formation on polystyrene microtiter plates was based on previously published protocols. The absorbance at 490 nm was measured with an Apollo LB 911ELISA (Berthold Technologies GmbH & Co. KG, Waltham, MA, USA) reader. The minimal biofilm-eradication concentration (MBEC) was defined as the lowest concentration of antibiotics required to eradicate the biofilm. All experiments were performed in triplicate.

The subject of data set [12] is E. coli 25922. In words: MIC by broth microdilution. The format is cell-based, Escherichia coli. Conditions: Escherichia coli; E. coli 25922, planktonic; read-out: MIC. How it is done:
as §4
(§6) The antimicrobial activity of the two complexes (1) and (2) was assessed using their minimum inhibitory concentration (MIC) by the broth microdilution method, as previously described by the Clinical and Laboratory Standard Institute (CLSI; M07-A9 document). A broth microdilution assay was performed in sterile 96-well plates using Muller-Hinton broth (Scharlau; MHB). The compounds solubilized in […] (1,000 μg/mL) were serially diluted in 90 μL MHB, in concentrations ranging between 500 and 0.97 μg/mL. Overnight cultures were used to prepare suspension in phosphate-buffered saline (pH 7.0) to match a 0.5 McFarland density. The bacterial suspensions were further diluted to 1:100 by adding 0.1 mL of bacterial suspension to 9.9 mL of MHB. A volume of 10 μL of this dilution was added to each well of columns 1–10, containing different concentrations of the tested compounds. […] Additionally, 10 μL of the diluted bacterial suspension was added in column 11 (the growth control). A volume of 100 μL MHB was added to the microtiter plates’ sterility control wells (column 12). After inoculation, the plates were incubated at 35 ± 2 °C for 18 h. Growth was measured as light absorbance (620 nm) in comparison to an uninoculated well (negative control). It was detected using a microtiter plate reader (Apollo LB 911ELISA (Berthold Technologies GmbH & Co. KG, Waltham, MA, USA)). The MIC of each compound was defined as the lowest concentration required to inhibit bacterial growth.
In general terms: In broth dilution the organism is exposed to a series of concentrations in liquid medium.

Data set [13] concerns P. aeruginosa 27853. In words: MIC by broth microdilution. The format is cell-based, Pseudomonas aeruginosa. Conditions: Pseudomonas aeruginosa; P. aeruginosa 27853, planktonic; read-out: MIC. How it is done: as §4, §6
The test system of data set [14] is BJ cells. In words: Cell morphology by fluorescence microscopy (phalloidin staining), BJ cells. Conditions: 2.5 and 10 µg/mL, 24 h. The format is cell-based, human. How it is done:
(§7) The morphological changes induced by the treatment of the BJ and B16 cell lines with the tested compounds at two different concentrations (2.5 and 10 µg/mL) applied for 24 h were investigated by fluorescence microscopy.
(§8) According to the manufacturer protocol, the cytoskeleton actin filaments of BJ and B16 cells were stained with phalloidin-FITC (Sigma-Aldrich, St. Louis, MO, USA). Briefly, cells were washed with PBS (5 min, 3 times), fixed for 5 min with 3% paraformaldehyde, washed three times with PBS, permeabilized with 0.1% Triton X-100 in PBS for 15 min, washed three times with PBS, stained with 20 μg/mL phalloidin-FITC at room temperature for 1 h and rewashed three times with PBS. The cell nucleus was stained with 8 μM of Hoechst 33342 solution for 10 min, washed three times with PBS, and finally, mounted and sealed on glass slides with FluorSave™ Reagent (Merck Millipore, Germany). The fluorescence images were acquired using an Andor DSD2 Confocal Unit (Andor, Ireland), mounted on an epifluorescence microscope, Olympus BX-51 (Olympus, Germany), equipped with a 40x and 100x objective and an appropriate DAPI/Hoechst filter cube (excitation filter 390/40 […], dichroic mirror 405 nm and emission filter 452/45 nm) and GFP/FITC filter cube (excitation filter 466/40 nm, dichroic mirror 488 nm and emission filter 525/54 nm).

Data set [15] deals with S. aureus 25923. Nature of the data set: Biofilm formation on polystyrene (crystal violet), MBEC. The class given is cell-based, Staphylococcus aureus. The note with it: S. aureus 25923, biofilm. How it is done: as §4, §5
The test system of data set [16] is MRSA 388. Described as above. The format is cell-based, Staphylococcus aureus. The note with it: MRSA 388, biofilm. On the procedure:
as §4, §5

Data set [17] deals with S. aureus 25923. Nature of the data set: MIC by broth microdilution. The format is cell-based, Staphylococcus aureus. Conditions: Staphylococcus aureus; S. aureus 25923, planktonic; read-out: MIC. On the procedure:
as §4, §6

Data set [18] relates to MRSA 388. In words: MIC by broth microdilution. The class given is cell-based, Staphylococcus aureus. The note with it: Staphylococcus aureus; MRSA 388, planktonic; read-out: MIC. On the procedure: as §4, §6
Data set [19] concerns P. aeruginosa 27853. In words: Biofilm formation on polystyrene (crystal violet), MBEC. The format is cell-based, Pseudomonas aeruginosa. The note with it: P. aeruginosa 27853, biofilm. How it is done: as §4, §5
The subject of data set [20] is B16 murine melanoma cell line. Nature of the data set: MTT cell viability assay, B16 melanoma cells. The class given is cell-based, mouse. The note with it: 24 h and 48 h. How it is done:
as §1, §2, §3

The subject of data set [21] is B16 cells. In words: Lactate dehydrogenase (LDH) release assay, B16 cells. The class given is cell-based, mouse. The note with it: B16, 24 h and 48 h. On the procedure:
(§9) Membrane integrity after peptide treatment was assessed based on LDH release using a CytoTox 96 Non-Radioactive Cytotoxicity Assay (Promega), as previously described. […] Maximal LDH release was obtained by complete cell lysis induced by using 1% of Triton X-100. The absorption resulting from LDH activity was measured in a microplate reader Mithras 940 (Berthold) at 490 nm, and the % LDH was calculated as: [(corrected absorbance of the LDH released in treated cells)/(corrected absorbance of the total LDH released)] * 100%.

The test system of data set [22] is B16 cells. In words: Cell morphology by fluorescence microscopy (phalloidin staining), B16 cells. The format is cell-based, mouse. Conditions: 2.5 µg/mL (2.84 μM and 2.76 μM for the complexes), 24 h. How it is done: as §7, §8
Data set [23] concerns BJ cells. In words: Lactate dehydrogenase (LDH) release assay, BJ cells. Conditions: 24 h and 48 h. The format is cell-based, human. On the procedure:
as §9

Converted amounts (≈) assume the structure as drawn. Where two headings read alike, the source gives them in different places.

Broadly, the MIC is the lowest concentration found to suppress growth. The IC50 is the concentration needed to halve the response being measured. Consider `O.[Cu+2].[O-][Cl+3]([O-])([O-])[O-].[O-][Cl+3]([O-])([O-])[O-].c1cnc2c(c1)ccc1cccnc12.c1cnc2c(c1)ccc1cccnc12` [CupP, [Cu(phen)2(OH2)](ClO4)2], for which the MBEC with P. aeruginosa 27853 [1] is on record as 0.50 mM; in the data set with E. coli 25922 [4] it was 0.10 mM; in the data set with MRSA 388 [7], 0.10 mM; with S. aureus 25923 [8], 0.03 mM. For the same compound, the MIC in the data set on P. aeruginosa 27853 [2] was 500 µM; in the data set on MRSA 388 [3], 120 µM; in the data set on E. coli 25922 [5], 30 µM; in the data set on S. aureus 25923 [6] it was 30 µM. Further, in data set [9], the TI is 0.80. For the same compound, the IC50 in [9] was 3.7 µM.
As to `Cc1cc(C)n2ncnc2n1` [dmtp, 5,7-dimethyl-1,2,4-triazolo[1,5-a]pyrimidine, reference compound], the “effect on viability of BJ cells” value in [10] is “did not affect the viability”. For the same compound, the MBEC with E. coli 25922 [11] is on record as 8.45 mM; in the data set with S. aureus 25923 [15] it was 8.45 mM; in the data set on MRSA 388 [16] it was 16.90 mM; in the data set on P. aeruginosa 27853 [19], 8.45 mM. Further, the MIC in the data set with E. coli 25922 [12] amounted to 8450 µM (≈ 1250 µg/mL); in the data set with P. aeruginosa 27853 [13] it was 8450 µM (≈ 1250 µg/mL); in the data set with S. aureus 25923 [17], 8450 µM (≈ 1250 µg/mL); in the data set with MRSA 388 [18], 16900 µM (≈ 2500 µg/mL). In addition, the “morphological changes of BJ cells” value in the data set with BJ cells [14] is listed as “did not alter their morphology”. For the same compound, the “effect on viability of B16 cells” value in [20] is listed as “did not affect the viability”. The “membrane integrity (LDH release)” value in the data set on B16 cells [21] and with BJ cells [23] was “did not affect the membrane integrity” in each case. Also, the “morphological changes of B16 cells” value in the data set on B16 cells [22] is given as “not altered”.
Take {[Cu(bpy)2(μ2OClO3)]ClO4}n [CubP]: the MBEC in the data set with P. aeruginosa 27853 [1] was 1.09 mM; with E. coli 25922 [4] it was 0.54 mM; with MRSA 388 [7], 0.27 mM; with S. aureus 25923 [8] it was 0.14 mM. Further, the minimal inhibitory concentration (MIC) with P. aeruginosa 27853 [2] is 1090 µM; in the data set with MRSA 388 [3], 270 µM; in the data set on E. coli 25922 [5], 540 µM; with S. aureus 25923 [6], 270 µM. The TI in data set [9] is on record as 5.53. For the same compound, the IC50 in [9] is 16 µM.
`Cc1cc(-c2ccccc2)nc2ncnn12.[Cu+2].[O-][Cl+3]([O-])([O-])[O-].[O-][Cl+3]([O-])([O-])[O-].c1ccc(-c2ccccn2)nc1.c1ccc(-c2ccccn2)nc1` [CubPP, [Cu(bpy)2(pmtp)](ClO4)2]: the MBEC is 0.40 mM with P. aeruginosa 27853 [1], 0.40 mM in the data set on E. coli 25922 [4], 0.40 mM with MRSA 388 [7] and 0.80 mM in the data set on S. aureus 25923 [8]. The MIC in the data set on P. aeruginosa 27853 [2] is 400 µM; with MRSA 388 [3], 400 µM; in the data set with E. coli 25922 [5], 200 µM; in the data set with S. aureus 25923 [6], 400 µM. Moreover, the TI in data set [9] was 3.23. In [9], the IC50 was 20 µM.
On to `Cc1cc(-c2ccccc2)nc2ncnn12.[Cu+2].[O-][Cl+3]([O-])([O-])[O-].[O-][Cl+3]([O-])([O-])[O-].c1cnc2c(c1)ccc1cccnc12.c1cnc2c(c1)ccc1cccnc12` [CupPP, [Cu(phen)2(pmtp)](ClO4)2], for which the MBEC is reported as 0.09 mM in the data set on P. aeruginosa 27853 [1], 0.02 mM in the data set on E. coli 25922 [4], 0.05 mM with MRSA 388 [7] and 0.01 mM in the data set on S. aureus 25923 [8]. Further, the MIC in the data set with P. aeruginosa 27853 [2] is 90 µM; in the data set with MRSA 388 [3] it was 50 µM; in the data set with E. coli 25922 [5] it was 20 µM; in the data set with S. aureus 25923 [6], 10 µM. The TI in [9] is on record as 0.88. For the same compound, the IC50 in data set [9] is 4 µM.

The record behind these values is article PMC8620715, “Biological Activity of Triazolopyrimidine Copper(II) Complexes Modulated by an Auxiliary N-N-Chelating Heterocycle Ligands” (Molecules, 2021).
